Reference: patent publication US20230286970A1, “NOVEL OXADIAZOLE-BASED SELECTIVE HDAC6 INHIBITORS” (ITALFARMACO S.P.A., priority 2020, published 2023)

Key:
[1] = target: recombinant human HDAC1 (Homo sapiens (Human), UniProt Q13547); experiment: Enzymatic screening, HDAC1 inhibition (fluorogenic FdL_G substrate); type: biochemical
In short: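 Recombinant human HDAC1 inhibition was measured fluorometrically using the FLUOR DE LYS-Green (FdL_G) substrate. Compounds at 8 doses (1% DMSO final) in Tris-HCl pH 8 buffer with NaCl, Tween-20 and glycerol were preincubated in triplicate with enzyme and 1 mg/mL BSA, then given substrate. Developer I plus 2 μM TSA was added, and fluorescence read after 25 minutes in the dark.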

[2] = target: recombinant human HDAC6 (Homo sapiens (Human), UniProt Q9UBN7); experiment: Enzymatic screening, HDAC6 inhibition (fluorogenic FdL_G substrate); type: biochemical
recombinant human HDAC6, sequence (Q9UBN7 whole entry): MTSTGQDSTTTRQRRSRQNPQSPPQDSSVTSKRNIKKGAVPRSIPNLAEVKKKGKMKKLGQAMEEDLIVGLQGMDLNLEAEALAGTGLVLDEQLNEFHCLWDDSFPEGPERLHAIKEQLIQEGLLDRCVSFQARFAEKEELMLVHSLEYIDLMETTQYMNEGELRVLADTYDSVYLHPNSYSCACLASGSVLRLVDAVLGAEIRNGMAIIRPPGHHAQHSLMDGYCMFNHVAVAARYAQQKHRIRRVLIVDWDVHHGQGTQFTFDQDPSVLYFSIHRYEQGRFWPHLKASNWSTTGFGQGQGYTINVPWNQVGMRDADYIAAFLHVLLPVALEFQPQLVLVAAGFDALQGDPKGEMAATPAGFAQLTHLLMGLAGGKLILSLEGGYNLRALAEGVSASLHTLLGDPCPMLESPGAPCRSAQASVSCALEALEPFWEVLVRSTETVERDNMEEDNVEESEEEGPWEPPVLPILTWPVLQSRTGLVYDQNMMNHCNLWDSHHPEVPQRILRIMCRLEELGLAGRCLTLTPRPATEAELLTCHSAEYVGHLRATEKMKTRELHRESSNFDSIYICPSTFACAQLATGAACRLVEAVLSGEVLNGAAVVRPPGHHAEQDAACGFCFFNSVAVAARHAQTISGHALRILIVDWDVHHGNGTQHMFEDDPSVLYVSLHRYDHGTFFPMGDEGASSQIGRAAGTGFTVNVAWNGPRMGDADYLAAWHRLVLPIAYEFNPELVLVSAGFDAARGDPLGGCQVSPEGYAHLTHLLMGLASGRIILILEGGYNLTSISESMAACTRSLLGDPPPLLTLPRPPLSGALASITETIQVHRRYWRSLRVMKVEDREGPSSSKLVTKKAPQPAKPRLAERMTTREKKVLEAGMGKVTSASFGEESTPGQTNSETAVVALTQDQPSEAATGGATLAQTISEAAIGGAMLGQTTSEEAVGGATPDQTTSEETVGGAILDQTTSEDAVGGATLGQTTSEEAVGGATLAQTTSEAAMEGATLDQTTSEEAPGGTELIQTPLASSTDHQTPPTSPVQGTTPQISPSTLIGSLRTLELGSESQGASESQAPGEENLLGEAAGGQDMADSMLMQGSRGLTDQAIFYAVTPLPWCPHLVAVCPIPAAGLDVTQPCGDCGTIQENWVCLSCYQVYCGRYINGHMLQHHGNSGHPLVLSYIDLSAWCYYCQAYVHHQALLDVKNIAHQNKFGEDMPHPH
In short: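 Enzyme was preincubated with compound (8 doses, triplicate, 1% DMSO) in 25 mM Tris-HCl pH 8, 130 mM NaCl, 0.05% Tween-20, 10% glycerol, with BSA. A FLUOR DE LYS-Green substrate was then added, and fluorescence was read after developer plus 2 μM TSA.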

recombinant human HDAC1, sequence (Q13547 whole entry): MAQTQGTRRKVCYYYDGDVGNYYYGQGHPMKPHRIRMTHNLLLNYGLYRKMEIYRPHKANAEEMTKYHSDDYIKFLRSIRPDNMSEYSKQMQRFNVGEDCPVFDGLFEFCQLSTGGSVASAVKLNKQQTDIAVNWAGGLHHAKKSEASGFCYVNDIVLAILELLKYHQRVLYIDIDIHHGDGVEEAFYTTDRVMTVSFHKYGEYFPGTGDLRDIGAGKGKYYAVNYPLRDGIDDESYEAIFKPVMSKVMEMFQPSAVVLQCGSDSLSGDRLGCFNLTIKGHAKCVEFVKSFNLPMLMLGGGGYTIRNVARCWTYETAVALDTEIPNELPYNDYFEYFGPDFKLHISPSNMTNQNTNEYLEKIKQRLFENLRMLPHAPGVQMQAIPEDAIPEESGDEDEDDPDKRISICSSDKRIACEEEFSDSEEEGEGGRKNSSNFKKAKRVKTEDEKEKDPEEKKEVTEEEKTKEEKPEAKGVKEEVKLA

SMILES | IC50 [1] [nM] | IC50 [2] [nM]
O=C(NCC1CC1)C1CCCN(C(=O)c2ccc(-c3cn(Cc4c(F)cc(-c5nnc(C(F)F)o5)cc4F)nn3)cc2)C1 (centres unmarked) [compound 239, N-(cyclopropylmethyl)-1-(4-(1-(4-(5-(difluoromethyl)-1,3,4-oxadiazol-2-yl)-2,6-difluorobenzyl)-1H-1,2,3-triazol-4-yl)benzoyl)piperidine-3-carboxamide] | > 200000 | 215
FC(F)c1nnc(-c2ccc(Cn3cc(-c4ccc(NC5=NCCN5)cc4)nn3)nc2)o1 [compd. 24, N-(4-(1-((5-(5-(difluoromethyl)-1,3,4-oxadiazol-2-yl)pyridin-2-yl)methyl)-1H-1,2,3-triazol-4-yl)phenyl)-4,5-dihydro-1H-imidazol-2-amine] | > 200000 | 7
Cn1c(N)nc2cc(-c3cn(Cc4ccc(-c5nnc(C(F)F)o5)cc4Cl)nn3)ccc21 [compound 344, 5-[1-[[2-chloro-4-[5-(difluoromethyl)-1,3,4-oxadiazol-2-yl]phenyl]methyl]triazol-4-yl]-1-methylbenzimidazol-2-amine] | 84400 | 47
O=C(Nc1cccc(-c2cnn(Cc3ccc(-c4nnc(C(F)F)o4)cc3)c2)c1)N1CCOCC1 [compound 227, N-(3-(1-(4-(5-(difluoromethyl)-1,3,4-oxadiazol-2-yl)benzyl)-1H-pyrazol-4-yl)phenyl)morpholine-4-carboxamide] | > 200000 | 172
CS(=O)(=O)NCCC(c1ccc(-c2nnc(C(F)F)o2)cn1)n1cc(-c2ccc(N)nc2)nn1 (centres unmarked) [Compd. 293, N-(3-(4-(6-aminopyridin-3-yl)-1H-1,2,3-triazol-1-yl)-3-(5-(5-(difluoromethyl)-1,3,4-oxadiazol-2-yl)pyridin-2-yl)propyl)methanesulfonamide] | > 200000 | 31
O=C1CCc2ccc(-c3nnn(Cc4ccc(-c5nnc(C(F)F)o5)cc4)n3)cc21 [compound 203, 6-(2-(4-(5-(difluoromethyl)-1,3,4-oxadiazol-2-yl)benzyl)-2H-tetrazol-5-yl)-2,3-dihydro-1H-inden-1-one] | > 200000 | 118
CN1CC(C(=O)Nc2cccc(-c3cn(Cc4ccc(-c5nnc(C(F)F)o5)cc4)nn3)c2)C1 [compound 149, N-(3-(1-(4-(5-(difluoromethyl)-1,3,4-oxadiazol-2-yl)benzyl)-1H-1,2,3-triazol-4-yl)phenyl)-1-methylazetidine-3-carboxamide] | > 200000 | 64
Cc1ncccc1-c1cn(Cc2ccc(-c3nnc(C(F)F)o3)cn2)nn1 [compound 115, 2-(difluoromethyl)-5-(6-((4-(2-methylpyridin-3-yl)-1H-1,2,3-triazol-1-yl)methyl)pyridin-3-yl)-1,3,4-oxadiazole] | > 200000 | 43
CC(c1ccc(-c2nnc(C(F)F)o2)cc1)n1nnc(-c2ccc3c(c2)C(=O)N(C)CC3)n1 (centres unmarked) [compound 229, 7-(2-(1-(4-(5-(difluoromethyl)-1,3,4-oxadiazol-2-yl)phenyl)ethyl)-2H-tetrazol-5-yl)-2-methyl-3,4-dihydroisoquinolin-1 (2H)-one] | > 200000 | 179
CNc1ccc2cc(-c3cn(Cc4ccc(-c5nnc(C(F)F)o5)cc4)nn3)ccc2n1 [compound 142, 6-(1-(4-(5-(difluoromethyl)-1,3,4-oxadiazol-2-yl)benzyl)-1H-1,2,3-triazol-4-yl)-N-methylquinolin-2-amine] | > 200000 | 59
[2H]C([2H])(c1ccc(-c2nnc(C(F)F)o2)cn1)n1cc(-c2ccc3nc(N)sc3c2)nn1 [compound 376, 6-[1-[dideuterio-[5-[5-(difluoromethyl)-1,3,4-oxadiazol-2-yl]pyridin-2-yl]methyl]triazol-4-yl]-1,3-benzothiazol-2-amine] | > 1e+06 | 9
CN1CC(C(=O)Nc2cccc(-c3cn(Cc4c(F)cc(-c5nnc(C(F)F)o5)cc4F)nn3)c2)C1 [Compd. 86, N-(3-(1-(4-(5-(difluoromethyl)-1,3,4-oxadiazol-2-yl)-2,6-difluorobenzyl)-1H-1,2,3-triazol-4-yl)phenyl)-1-methylazetidine-3-carboxamide] | > 200000 | 34
Fc1cc(-c2nnc(C(F)F)o2)ccc1Cn1cnc(-c2ccc(NC3=NCCN3)cc2)c1 [compound 357, N-[4-[1-[[4-[5-(difluoromethyl)-1,3,4-oxadiazol-2-yl]-2-fluorophenyl]methyl]imidazol-4-yl]phenyl]-4,5-dihydro-1H-imidazol-2-amine] | > 1e+06 | 12
CC[C@H](c1ccc(-c2nnc(C(F)F)o2)cc1)n1cc(-c2cccc(NC(=O)N3CCOCC3)c2)nn1 (stereo in doubt) [compound 184, N-(3-(1-(1-(4-(5-(difluoromethyl)-1,3,4-oxadiazol-2-yl)phenyl)propyl)-1H-1,2,3-triazol-4-yl)phenyl)morpholine-4-carboxamide] | > 200000 | 96
Cn1c(N)nc2cc(-c3nnn(Cc4ncc(-c5nnc(C(F)F)o5)cn4)n3)ccc21 [compound 252, 5-(2-((5-(5-(difluoromethyl)-1,3,4-oxadiazol-2-yl)pyrimidin-2-yl)methyl)-2H-tetrazol-5-yl)-1-methyl-1H-benzo[d]imidazol-2-amine] | > 200000 | 27
Nc1ccc(-c2cn(Cc3c(F)cc(-c4nnc(C(F)F)o4)cc3F)nn2)cn1 [compound 42, 5-(1-(4-(5-(difluoromethyl)-1,3,4-oxadiazol-2-yl)-2,6-difluorobenzyl)-1H-1,2,3-triazol-4-yl)pyridin-2-amine] | > 200000 | 19
CCCCC(c1ccc(-c2nnc(C(F)F)o2)cc1)n1cc(-c2cccc(NC(=O)N3CCOCC3)c2)nn1 (centres unmarked) [compound 244, N-(3-(1-(1-(4-(5-(difluoromethyl)-1,3,4-oxadiazol-2-yl)phenyl)pentyl)-1H-1,2,3-triazol-4-yl)phenyl)morpholine-4-carboxamide] | > 200000 | 240
Nc1ccc(-c2nnn(Cc3c(F)cc(-c4nnc(C(F)F)o4)cc3F)n2)cn1 [compound 45, 5-(2-(4-(5-(difluoromethyl)-1,3,4-oxadiazol-2-yl)-2,6-difluorobenzyl)-2H-tetrazol-5-yl)pyridin-2-amine] | > 200000 | 20
Nc1cc2cc(-c3cn(Cc4cc(F)c(-c5nnc(C(F)F)o5)cc4F)nn3)ccc2cn1 [compound 406, 6-[1-({4-[5-(difluoromethyl)-1,3,4-oxadiazol-2-yl]-2,5-difluorophenyl}methyl)-1H-1,2,3-triazol-4-yl]isoquinolin-3-amine] | 1e+06 | 85
Nc1nc2cc(-c3cn(Cc4ccc(-c5nnc(C(F)F)o5)cc4)cn3)ccc2o1 [compd. 309, 5-[1-[[4-[5-(difluoromethyl)-1,3,4-oxadiazol-2-yl]phenyl]methyl]imidazol-4-yl]-1,3-benzoxazol-2-amine] | > 1e+06 | 69
[2H]C([2H])(c1ccc(-c2nnc(C(F)F)o2)cn1)n1cc(-c2cccc(NC(=O)N3CCOCC3)c2)nn1 [compound 369, N-[3-[1-[dideuterio-[5-[5-(difluoromethyl)-1,3,4-oxadiazol-2-yl]pyridin-2-yl]methyl]triazol-4-yl]phenyl]morpholine-4-carboxamide] | > 1e+06 | 17
Nc1ncnc2cc(-c3cn(Cc4ccc(-c5nnc(C(F)F)o5)cc4F)nn3)ccc12 [compound 387, 7-[1-({4-[5-(difluoromethyl)-1,3,4-oxadiazol-2-yl]-2-fluorophenyl}methyl)-1H-1,2,3-triazol-4-yl]quinazolin-4-amine] | 1e+06 | 12
Nc1ccc(-c2nnn(Cc3ncc(-c4nnc(C(F)F)o4)cn3)n2)cn1 [compound 77, 5-(2-((5-(5-(difluoromethyl)-1,3,4-oxadiazol-2-yl)pyrimidin-2-yl)methyl)-2H-tetrazol-5-yl)pyridin-2-amine] | > 200000 | 35
COc1ccccc1-c1cn(Cc2ccc(-c3nnc(C(F)F)o3)cc2)nn1 [compound 233, 2-(difluoromethyl)-5-(4-((4-(2-methoxyphenyl)-1H-1,2,3-triazol-1-yl)methyl)phenyl)-1,3,4-oxadiazole] | > 200000 | 200
O=C(Nc1ccc(-c2nnn(Cc3ncc(-c4nnc(C(F)F)o4)cn3)n2)cn1)C(F)F [compound 68, N-(5-(2-((5-(5-(difluoromethyl)-1,3,4-oxadiazol-2-yl)pyrimidin-2-yl)methyl)-2H-tetrazol-5-yl)pyridin-2-yl)-2,2-difluoroacetamide] | > 200000 | 33
Nc1cc2cc(-c3cn(Cc4ccc(-c5nnc(C(F)F)o5)cc4Cl)nn3)ccc2cn1 [compound 404, 6-(1-(2-chloro-4-(5-(difluoromethyl)-1,3,4-oxadiazol-2-yl)benzyl)-1H-1,2,3-triazol-4-yl)isoquinolin-3-amine] | 1e+06 | 178
CC(=O)Nc1cccc(-c2cn(Cc3c(F)cc(-c4nnc(C(F)F)o4)cc3F)nn2)c1 [compound 70, N-(3-(1-(4-(5-(difluoromethyl)-1,3,4-oxadiazol-2-yl)-2,6-difluorobenzyl)-1H-1,2,3-triazol-4-yl)phenyl)acetamide] | > 200000 | 34
Fc1cc(-c2nnc(C(F)F)o2)ccc1Cc1nc(-c2ccc(NC3=NCCN3)cc2)no1 [compound 420, N-(4-(5-(4-(5-(difluoromethyl)-1,3,4-oxadiazol-2-yl)-2-fluorobenzyl)-1,2,4-oxadiazol-3-yl)phenyl)-4,5-dihydro-1H-imidazol-2-amine] | > 1e+06 | 12
